The experiment has as its system Methicillin-resistant Staphylococcus aureus (MRSA). Put plainly: antimicrobial properties against MRSA (log killing). It counts as cell-based. Particulars: high dose (100 μg/ml). As to the method:
FIG. 2 compares the antimicrobial properties of chitosan and hydrophobically modified chitosan, alongside ampicillin, against Methicillin-resistant Staphylococcus aureus (MRSA). Hm-chitosan at 0.5 wt % achieves a log killing of >2, whereas native chitosan (0.5 wt %) achieves a log killing of ˜1. In contrast, ampicillin at high dose (100 μg/ml) achieves only ˜0.5 log killing.

The structures appear in SMILES notation.

In turn, `CC1(C)S[C@@H]2[C@H](NC(=O)[C@H](N)c3ccccc3)C(=O)N2[C@H]1C(=O)O` [ampicillin] showed a log killing of about 0.5 log.
